Results as given in patent publication US8048898B2, “Inhibitor of binding of S1P1” (Taisho Pharmaceutical Co., Ltd, priority 2007, dated 2011).

Molecular target: T1, human Edg-1(S1P1) (Homo sapiens, UniProt P21453)
T1 construct: expressed in transfected cells; host or cells: HEK-293
Test: S1P1 Binding Test ([33P]-S1P, membrane fraction of HEK-293 cell line carrying the human Edg-1(S1P1) gene)
Settings: [33P]-S1P 0.1 nM; for inhibition at 10 µM: compound at 10 μM, 30° C., 1 hour, read-out: inhibition rate of Edg-1(S1P1) binding; for IC50: membrane binding test at various concentrations, read-out: IC50 value, Edg-1(S1P1) binding inhibition
Method: The membrane fraction of a HEK-293 cell line carrying the human Edg-1(S1P1) gene was used to study the compounds of the present invention for their inhibitory effect on Edg-1(S1P1) binding, as described in Science. […] To obtain the membrane fraction, treatment with solubilizing buffer (1 mM Tris/HCl, pH 7.2) for 10 minutes on ice was performed, followed by centrifugation at 1000×g for 5 minutes to remove an insoluble fraction and then at 40000×g for 30 minutes at 4° C. The resulting membrane fraction was dissolved in binding buffer (20 mM Tris-HCl, pH 7.4, 100 mM NaCl, 15 mM NaF, 2 mM deoxypyridoxine, 4 mg/mL fatty acid-free BSA), followed by addition of binding buffer containing [^33P]-S1P (ARC, final concentration: 0.1 nM) and DMSO solution of a test compound (final concentration of the compound: 10^−5 M, final concentration of DMSO: 0.1%). After stirring, the reaction solution was incubated at 30° C. for 1 hour. The membrane fraction was collected onto a unifilter-96 GF/C filter (Perkin Elmer) using a harvester and washed four times with binding buffer, followed by drying the filter. After addition of 25 μL Microscint 0 (Perkin Elmer), radioactivity was measured with a Top Count NXT (Packard) to calculate amount (A), i.e., the amount of [^33P]-S1P binding to the membrane fraction in the presence of the compound.
The same procedure was performed in the absence of any test compound to calculate amount (B), i.e., the amount of [^33P]-S1P binding. Moreover, the same procedure was also performed with HEK-293 cells carrying no Edg-1(S1P1) gene in the absence of any test compound to calculate amount (C), i.e., the amount of background [^33P]-S1P binding.
The inhibition rate of Edg-1(S1P1) binding was calculated for each compound by the following equation. Inhibition rate (%)=[1−(A−C)/(B−C)]×100
Moreover, the activity of each test compound was calculated as a value (IC50 value) showing 50% of the radioactivity obtained in the absence of any test compound. Namely, the above membrane system binding test was performed in the presence of a test compound at various concentrations to calculate an IC50 value according to the dose-dependent inhibition curve analyzed with data analysis software, Origin (Lightstone Corp., Japan).

T1 sequence (P21453 whole entry): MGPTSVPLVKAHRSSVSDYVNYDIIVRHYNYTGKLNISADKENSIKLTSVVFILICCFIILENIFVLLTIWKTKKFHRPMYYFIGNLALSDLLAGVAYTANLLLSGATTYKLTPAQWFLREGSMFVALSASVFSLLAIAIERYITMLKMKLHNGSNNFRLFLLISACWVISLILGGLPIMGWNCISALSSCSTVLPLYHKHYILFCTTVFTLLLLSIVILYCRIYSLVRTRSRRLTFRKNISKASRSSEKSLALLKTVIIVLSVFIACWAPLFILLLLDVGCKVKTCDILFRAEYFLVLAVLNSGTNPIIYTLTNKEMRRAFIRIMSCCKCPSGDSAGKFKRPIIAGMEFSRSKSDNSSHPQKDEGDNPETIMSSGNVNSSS

Row | SMILES | inhibition at 10 µM | IC50
1 | CCc1c(C(C)NS(=O)(=O)c2ccc3c(c2)OCO3)ccnc1Oc1cccc(N2CCOCC2)c1 (stereo not drawn) [Compound 52] | ≥ 3% | 
2 | CCc1c(C(C)NS(=O)(=O)/C=C/c2ccccc2)ccnc1Oc1cccc(N2CCOCC2)c1 (stereo not drawn) [Compound 53] | ≥ 3% | 
3 | CCc1c(C(C)NS(=O)(=O)c2ccc3c(c2)CCO3)ccnc1Oc1cccc(N2CCOCC2)c1 (stereo not drawn) [Compound 54] | ≥ 3% | 
4 | CCc1c(C(C)NS(=O)(=O)c2ccc3c(c2)N=S=N3)ccnc1Oc1cccc(N2CCOCC2)c1 (stereo not drawn) [Compound 55] | ≥ 3% | 126 nM
5 | CCc1c(C(C)NS(=O)(=O)c2ccc(Cl)cc2Cl)ccnc1Oc1cccc(N2CCOCC2)c1 (stereo not drawn) [Compound 56] | ≥ 3% | 

The remaining lines, values ahead:

Row | inhibition at 10 µM | IC50 | SMILES
6 | ≥ 3% | ≤ 200 nM | CCc1c(C(C)NS(=O)(=O)c2ccc3c(Cl)ccc(Cl)c3c2)ccnc1Oc1cccc(N2CCOCC2)c1 (stereo not drawn) [Compound 57]
7 | ≥ 3% |  | CCc1c(C(C)NS(=O)(=O)c2ccc3c(Cl)cccc3c2)ccnc1Sc1ccc(C)cc1 (stereo not drawn) [Compound 58, 5-Chloronaphthalene-2-sulfonic acid [1-(3-ethyl-2-p-toluylsulfanyl-pyridin-4-yl)-ethyl]-amide]
8 | ≥ 3% |  | CCc1c(C(C)NS(=O)(=O)c2ccc3c(Cl)cccc3c2)ccnc1S(=O)(=O)c1ccc(C)cc1 (stereo not drawn) [Compound 59, 5-Chloronaphthalene-2-sulfonic acid {1-[3-ethyl-2-(toluene-4-sulfonyl)-pyridin-4-yl]-ethyl}-amide]
9 | ≥ 3% |  | CCc1c(C(C)N(C)S(=O)(=O)c2ccc3c(Cl)cccc3c2)ccnc1Oc1cccc(N2CCOCC2)c1 (stereo not drawn) [Compound 60, 5-Chloronaphthalene-2-sulfonic acid {1-[3-ethyl-2-(3-morpholin-4-yl-phenoxy)-pyridin-4-yl]-ethyl}-methyl-amide]
10 | ≥ 3% |  | CCc1c(C(C)NS(=O)(=O)c2ccc3c(Cl)cccc3c2)ccnc1Sc1cccc(N2CCN(C)CC2)c1 (stereo not drawn) [Compound 62]
